Key:
Type in all cases: in vivo
[1] = tested on: human hepatoma cells (HepG2); assay: Tumor inhibition in HepG2 tumor-bearing nude mice, probiotic component/lysine (Example 7, Table 12); conditions: dosed twice, interval 7 days, 7th day after final administration, probiotic component = supernatant component of disrupted Saccharomyces cerevisiae
Procedure: (§1) In the following examples of the present invention, the combinational pharmaceutical efficacies (drug efficacies) of drug A and drug B co-administration was determined by ratio q of actual pharmaceutical efficacy (drug efficacy)/theoretical pharmaceutical efficacy (drug efficacy) according to Zhengjun JIN method, as follows.
Nude mice were used as experimental subjects, and human hepatoma cells (HepG2) were used as modeling cells. […] The model animals were randomly divided into 13 groups, and the drugs were administered according to Table 12. […] Each group was dosed twice at an interval of 7 days with an injection volume of […]. On the 7th day after final administration, the animals were euthanized, and the tumor tissues were taken out after dissection to determine the tumor weight, and the tumor inhibition rate was calculated relative to the negative control group.

[2] = tested on: breast cancer 4T1 cells; assay: Extra-tumoral local administration in 4T1 tumor-bearing BALB/c mice, R7d/R21d (Example 11, Table 17); conditions: subaxillary intradermal (extra-tumoral), twice at 7-day interval, 120 μl/mouse/time
Procedure: V=0.5×a×b^2, wherein a and b represent the length and width of the local lesion, respectively; Volume of the local lesion (e.g. tumor):
Local lesion (e.g., tumor) proliferation rate (R)=TV/CV×100, wherein TV and CV are the local lesion volumes in the study group and negative control group, respectively;
as §1
BALB/c mice were used as experimental subjects, and breast cancer 4T1 cells were used as modeling cells. 0.25×10^5 cells/mouse were injected into the right axilla subcutaneously for transplantation tumor modeling. On the 5th day after modeling, the test animals with visually obvious tumors were randomly divided into 12 groups, having 10 animals in each group. […] In groups 1-11, on days 7 and 21 after the last dose the tumor volume (V7d, V21d) were measured, and the relative tumor proliferation rates (R7d, R21d) were calculated relative to the negative control group on days 7 and 21 after the dose, so that the short-term therapeutic effectiveness (100%−R7d) and the medium- and long-term therapeutic effectiveness (100%−R21d) could be calculated, respectively. Further, based on the short-term therapeutic effectiveness and the medium- and long-term therapeutic effectiveness, the actual/expected ratio for short-term pharmaceutical efficacies q7d and the actual/expected ratio for medium- and long-term pharmaceutical efficacies q21d were calculated respectively.

[3] = tested on: human pancreatic cancer cells (PANC-1); assay: Tumor inhibition in PANC-1 tumor-bearing nude mice, probiotic component/gemcitabine (Example 7, Table 13); conditions: dosed once, 100 μl/mouse/time, 7th day, probiotic component = supernatant component of disrupted Saccharomyces cerevisiae
Excerpt: The method for determining the effect of combined drug administration in animal experiments was Burgi method (Burgi Y. Pharmacology; Drug actions and reactions. […] The Burgi method was modified by Zhengjun JIN (Zhengjun JIN, Equal probability and curve and “Q50”, Journal of the Second Shanghai Medical College; 1981, 1, 75-86) with q calculated as: q=EA+B/(EA+EB-EA×EB). In the following examples of the present invention, the combinational pharmaceutical efficacies (drug efficacies) of drug A and drug B co-administration was determined by ratio q of actual pharmaceutical efficacy (drug efficacy)/theoretical pharmaceutical efficacy (drug efficacy) according to Zhengjun JIN method, as follows. […] The model animals were randomly divided into 13 groups, and the drugs were administered according to Table 13.

[4] = tested on: lung tumor cells (A549); assay: Tumor inhibition in A549 tumor-bearing nude mice, co-administration (Example 5, Table 7); conditions: dosed once, 7th day, probiotic component = heat-inactivated Saccharomyces boulardii
Excerpt: The method for determining the effect of combined drug administration in animal experiments was Burgi method (Burgi Y. Pharmacology; Drug actions and reactions. Cancerres. 1978, 38(2), 284-285). The Burgi method was modified by Zhengjun JIN (Zhengjun JIN, Equal probability and curve and “Q50”, Journal of the Second Shanghai Medical College; 1981, 1, 75-86) with q calculated as: q=EA+B/(EA+EB−EA×EB). In the following examples of the present invention, the combinational pharmaceutical efficacies (drug efficacies) of drug A and drug B co-administration was determined by ratio q of actual pharmaceutical efficacy (drug efficacy)/theoretical pharmaceutical efficacy (drug efficacy) according to Zhengjun JIN method, as follows.
Nude mice were used as experimental subjects, and lung tumor cells (A549) were used as modeling cells, 1×10^5 cells/mouse were injected into the right axilla subcutaneously for transplantation tumor modeling, and the average tumor volume of successfully modeled nude mice was 153.7 mm^3. The model animals were randomly divided into 18 groups, and the drugs were administered according to the drug components and administration route in Table 7. Each group was dosed once with an injection volume of […]. Wherein, the probiotic component was heat-inactivated Saccharomyces boulardii, and the administration route of group 16 was intra-tumoral injection of probiotic component followed by intra-tumoral injection of 10% arginine about 2 hours later. On the 7th day after drug administration, the animals were euthanized, and after dissection, the tumor tissue was taken out to determine the tumor weight, and the tumor inhibition rate (r) was calculated relative to the negative control group. Further, the actual efficacy/expected efficacy ratio q of a drug could also be calculated according to the therapeutic effect (tumor inhibition rate).

[5] = listed as 20% lysine, 20% lysine
[6] = intratumoral injection, '+' = arginine injected about 2 hours later

## NCCCC[C@H](N)C(=O)O [25% lysine, lysine]
[1]
  Tumor inhibition rate: 54.1%
  Tumor weight (x ± s): 0.109 ± 0.074 g
[1]; 5% lysine
  Tumor inhibition rate: 11.3%
  Tumor weight (x ± s): 0.211 ± 0.091 g
[1]; listed as 1% lysine, 1% lysine
  Tumor inhibition rate: 5.2%
  Tumor weight (x ± s): 0.226 ± 0.112 g
[1]; [5]
  Tumor inhibition rate: 43.6%
  Tumor weight (x ± s): 0.134 ± 0.073 g
[2]; day 7 after last dose
  R7 d (relative tumor proliferation rate): 96%
[2]; day 21 after last dose
  R21 d (relative tumor proliferation rate): 102%

## Nc1ccn([C@@H]2O[C@H](CO)[C@@H](O)C2(F)F)c(=O)n1 [5% gemcitabine, gemcitabine]
[3]
  Tumor inhibition rate: 35.1%
  Tumor weight (x ± s): 0.191 ± 0.077 g
[3]; listed as 0.05% gemcitabine
  Tumor inhibition rate: 5.6%
[3]; listed as 0.1% gemcitabine
  Tumor inhibition rate: 7.8%
[3]; listed as […] gemcitabine
  Tumor inhibition rate: 30.4%
  Tumor weight (x ± s): 0.204 ± 0.103 g

## N=C(N)NCCC[C@H](N)C(=O)O [10% arginine, arginine]
[4]; [6]
  Tumor inhibition rate r: 24.7%
  Tumor weight (x ± s): 0.164 ± 0.061 g
[4]; intravenous injection
  Tumor inhibition rate r: 6.4%
  Tumor weight (x ± s): 0.196 ± 0.077 g
